Consider one compound from US20180243421A1, “IMMUNOSTIMULATING AGENT” (AJINOMOTO CO., INC., priority 2015, published 2018).

Format in all cases: in vivo, BALB/c mice
Test [1] deals with anti-influenza IgA antibody. The test can be described thus: Transnasal influenza vaccine adjuvant activity: anti-influenza IgA antibody in nasal cavity wash. The conditions noted are these: Example 4, influenza HA vaccine 20 μl, SZ62 1 μg, Poly(I:C) 5 μg, two weeks from secondary immunization.
Test [2] relates to anti-OVA-specific IgG1 subclass antibody. The test can be described thus: Adjuvant activity: anti-OVA-specific IgG1 subclass antibody in serum after secondary immunization (Examples 1, 5, 7, 8; ELISA absorbance). A digest of the protocol: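 Serum was taken two weeks after the secondary immunization and assayed by ELISA on plates coated with 5 μg/ml OVA. Detection used biotinylated anti-mouse IgG1, then anti-biotin-HRP and TMB. The reaction was stopped with 2N H2SO4 and read as absorbance at 450 nm.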
On the technique in general: An ELISA detects its analyte on a solid surface through an enzyme-linked reagent.

Test [3] has the same test system. The test can be described thus: Adjuvant activity: anti-OVA-specific IgG1 subclass antibody in serum after secondary immunization (Examples 12, 19, 20, 21). As to conditions: Example 21; s.c.; SZ62 0.256 μmol in 5% αCD saline, CpG 5 μg, MPL 5 μg, Addavax 1:1, Alum; two weeks from secondary immunization.
Test [4] deals with anti-OVA-specific IgG2a subclass antibody. The test can be described thus: Adjuvant activity: anti-OVA-specific IgG2a subclass antibody in serum after secondary immunization. The protocol:
Two weeks from the secondary immunization, the whole blood was extracted under anesthesia, and the obtained serum sample was measured for anti-OVA-specific IgG1 subclass antibody.
Measurement Method of anti-OVA-specific IgG2a Subclass Antibody
To a 96 well plate was added 5 μg/ml OVA at 100 μl/well, and the mixture was incubated at 4° C. overnight. After incubation, the mixture was washed three times with 200 μl of PBS-T (PBS+0.05%(v/v) Tween 20) per well, and blocked with 100 μl of 5% FCS/PBS solution per well at room temperature for 1 to 2 hr. Thereafter, the mixture was washed three times with PBS-T (200 μl/well), a diluted serum sample (100 μl/well) or the same amount of 5% FCS/PBS solution as a control was added, and the mixture was incubated at 37° C. for 1 hr. Thereafter, the mixture was washed five times with PBS-T (200 μl/well), a diluted biotinylated anti-mouse IgG2a antibody (100 μl/well) was added, and the mixture was incubated at 37° C. for 45 min. Thereafter, the mixture was washed five times with PBS-T (200 μl/well), a diluted anti-biotin-HRP antibody was added (100 μl/well), and the mixture was incubated at 37° C. for another 30 min. Thereafter, the mixture was washed five times with PBS-T (200 μl/well), TMB substrate solution was added (100 μl/well), and the mixture was incubated at room temperature for 10-15 min. Thereafter, a reaction quenching liquid (2N sulfuric acid solution) was added (50 μl/well) to discontinue a color developing reaction, and the absorbance (OD Value=450 nm) was measured by a microplate reader.
Measurement Method of Concentration of anti-OVA-specific IgG1 Subclass Antibody and anti-OVA-specific IgG2a Subclass Antibody
To a 96 well plate was added 5 μg/ml OVA at 100 μl/well, and the mixture was incubated at 4° C. overnight. After incubation, the mixture was washed three times with 200 μl of PBS-T (PBS+0.05% (v/v) Tween 20) per well, and blocked with 100 μl of 5% FCS/PBS solution per well at room temperature for 1 to for 2 hr. […] When an anti-OVA-specific IgG2a subclass antibody was measured, the standard of an anti-OVA-specific IgG2a subclass antibody was added at 50 ng/ml, 25 ng/ml, 12,5 ng/ml, 6.25 ng/ml, 3.125 ng/ml, 1.56 ng/ml, 0.781 ng/ml, 0.391 ng/ml, 0.195 ng/ml, 0.098 ng/ml, 0.049 ng/ml, 0 ng/ml, per 1 well. […] Thereafter, a reaction quenching liquid (2N sulfuric acid solution) was added (50 μl/well) to discontinue a color developing reaction, and the absorbance (OD Value=450 nm) was measured by a microplate reader. A standard curve was drawn from the measured OD values, and the concentration was calculated.

[5] abbreviates: Example 2, serum sample of Example 1.

Regarding `CCCCCCCCCCCCCCCC(=O)NC(=N)NCCCCN` [SZ62, N-hexadecanoylagmatine], in test [1], the “anti-influenza IgA antibody production in nasal cavity wash as compared to the influenza vaccine single administration group” value was “significantly increased”. Also, the “anti-OVA-specific IgG1 subclass antibody production as compared to the OVA single administration group” value in test [2] (Example 1, dorsal-subcutaneous, OVA 10 μg, SZ62 0.256 μmol in 5% αCD saline, Alum 2.56 μmol, serum two weeks from secondary immunization) was “significantly increased”; in test [2] (Example 5, same manner as Example 1) it was “significantly increased”; in test [2] (Example 8, same manner as Example 7), “significantly increased”; in test [3] it was “tended to increase”. Also, the “adjuvant activity (IgG1) compared with Alum” value in test [2] (Example 1, same test as E1) is listed as “equivalent to that of Alum”; in test [2] (Example 5) it was “equivalent to or not less than that of Alum”; in test [2] (Example 8), “equivalent to or not less than that of Alum”. For the same compound, the “adjuvant activity (IgG2a) compared with Alum” value in test [4] (setting [5]) is reported as “equivalent to that of Alum”. In addition, the “anti-OVA-specific IgG2a subclass antibody production as compared to the OVA single administration group” value in test [4] (setting [5]) was “significantly increased”; in test [4] (Example 21, s.c., SZ62 0.256 μmol in 5% αCD saline, CpG 5 μg, MPL 5 μg, Addavax 1:1, Alum, two weeks from secondary immunization) it was “tended to increase”.
